Measured values as given in US20100267561A1, “HERBICIDAL PYRIDAZINONE DERIVATIVES” (priority 2007, published 2010).

Columns and labels:
Test in all cases: Test E pre-/postemergence plant response
Assay type in all cases: in vivo
[1] = tested on: Italian ryegrass (Lolium multiflorum); details: scale 0 to 100
Summary of the method: (§1)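 Pre/post herbicide screen; formulation: non-phytotoxic solvent mix + surfactant. Post timing 1–4 leaves (2–18 cm ht). Greenhouse 14–21 d; visual 0 (none) to 100 (complete control) vs controls.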

[2] = tested on: surinam grass (Brachiaria decumbens); details: scale 0 to 100
Summary of the method: as §1

[3] = tested on: annual bluegrass (Poa annua); details: scale 0 to 100
Summary of the method: as §1

[4] = tested on: green foxtail (Setaria viridis); details: scale 0 to 100
Summary of the method: as §1

[5] = tested on: large crabgrass (Digitaria sanguinalis); details: scale 0 to 100
Summary of the method: as §1

[6] = tested on: naked crabgrass (Digitaria nuda); details: scale 0 to 100
Summary of the method: as §1

[7] = tested on: common groundsel (Senecio vulgaris); details: Postemergence, scale 0 to 100
Summary of the method: as §1

[8] = tested on: johnsongrass (Sorghum halepense); details: scale 0 to 100
Summary of the method: as §1

[9] = tested on: common chickweed (Stellaria media); details: Postemergence, scale 0 to 100
Summary of the method: as §1

[10] = tested on: dallisgrass (Paspalum dilatatum); details: scale 0 to 100
Summary of the method: as §1

[11] = tested on: itchgrass (Rottboellia cochinchinensis); details: scale 0 to 100
Summary of the method: as §1

[12] = tested on: goosegrass (Eleusine indica); details: scale 0 to 100
Summary of the method: as §1

[13] = tested on: purple nutsedge (Cyperus rotundus); details: scale 0 to 100
Summary of the method: as §1

[14] = tested on: guineagrass (Panicum maximum); details: scale 0 to 100
Summary of the method: as §1

[15] = tested on: broadleaf signalgrass (Brachiaria platyphylla); details: scale 0 to 100
Summary of the method: as §1

Structure (SMILES): COC(=O)Oc1cnn(C)c(=O)c1-n1nc(-c2ccc(Cl)cc2)cc1C [Compound 33]
- Plant response rating, Ryegrass, Italian ([1]; 16 g ai/ha, Preemergence): 98
- Plant response rating, Ryegrass, Italian ([1]; 31 g ai/ha, Preemergence): 100
- Plant response rating, Ryegrass, Italian ([1]; 62 g ai/ha, Preemergence): 100
- Plant response rating, Ryegrass, Italian ([1]; Postemergence, 8 g ai/ha): 35
- Plant response rating, Ryegrass, Italian ([1]; Postemergence, 16 g ai/ha): 75
- Plant response rating, Ryegrass, Italian ([1]; Postemergence, 31 g ai/ha): 90
- Plant response rating, Ryegrass, Italian ([1]; Postemergence, 62 g ai/ha): 95
- Plant response rating, Surinam Grass ([2]; 16 g ai/ha, Preemergence): 98
- Plant response rating, Surinam Grass ([2]; 31 g ai/ha, Preemergence): 98
- Plant response rating, Surinam Grass ([2]; 62 g ai/ha, Preemergence): 100
- Plant response rating, Surinam Grass ([2]; Postemergence, 8 g ai/ha): 75
- Plant response rating, Surinam Grass ([2]; Postemergence, 16 g ai/ha): 75
- Plant response rating, Surinam Grass ([2]; Postemergence, 31 g ai/ha): 100
- Plant response rating, Surinam Grass ([2]; Postemergence, 62 g ai/ha): 100
- Plant response rating, Bluegrass ([3]; 8 g ai/ha, Preemergence): 0
- Plant response rating, Bluegrass ([3]; 16 g ai/ha, Preemergence): 0
- Plant response rating, Bluegrass ([3]; 31 g ai/ha, Preemergence): 0
- Plant response rating, Bluegrass ([3]; 62 g ai/ha, Preemergence): 0
- Plant response rating, Bluegrass ([3]; Postemergence, 8 g ai/ha): 0
- Plant response rating, Bluegrass ([3]; Postemergence, 16 g ai/ha): 0
- Plant response rating, Bluegrass ([3]; Postemergence, 31 g ai/ha): 5
- Plant response rating, Bluegrass ([3]; Postemergence, 62 g ai/ha): 5
- Plant response rating, Foxtail, Green ([4]; 8 g ai/ha, Preemergence): 40
- Plant response rating, Foxtail, Green ([4]; 16 g ai/ha, Preemergence): 65
- Plant response rating, Foxtail, Green ([4]; 31 g ai/ha, Preemergence): 100
- Plant response rating, Foxtail, Green ([4]; 62 g ai/ha, Preemergence): 100
- Plant response rating, Foxtail, Green ([4]; Postemergence, 8 g ai/ha): 60
- Plant response rating, Foxtail, Green ([4]; Postemergence, 16 g ai/ha): 65
- Plant response rating, Foxtail, Green ([4]; Postemergence, 31 g ai/ha): 75
- Plant response rating, Foxtail, Green ([4]; Postemergence, 62 g ai/ha): 95
- Plant response rating, Crabgrass, Large ([5]; 8 g ai/ha, Preemergence): 40
- Plant response rating, Crabgrass, Large ([5]; 16 g ai/ha, Preemergence): 75
- Plant response rating, Crabgrass, Large ([5]; 31 g ai/ha, Preemergence): 100
- Plant response rating, Crabgrass, Large ([5]; 62 g ai/ha, Preemergence): 100
- Plant response rating, Crabgrass, Large ([5]; Postemergence, 8 g ai/ha): 70
- Plant response rating, Crabgrass, Large ([5]; Postemergence, 16 g ai/ha): 75
- Plant response rating, Crabgrass, Large ([5]; Postemergence, 31 g ai/ha): 90
- Plant response rating, Crabgrass, Large ([5]; Postemergence, 62 g ai/ha): 95
- Plant response rating, Crabgrass, Naked ([6]; 8 g ai/ha, Preemergence): 75
- Plant response rating, Crabgrass, Naked ([6]; 16 g ai/ha, Preemergence): 95
- Plant response rating, Crabgrass, Naked ([6]; 31 g ai/ha, Preemergence): 100
- Plant response rating, Crabgrass, Naked ([6]; 62 g ai/ha, Preemergence): 100
- Plant response rating, Crabgrass, Naked ([6]; Postemergence, 8 g ai/ha): 75
- Plant response rating, Crabgrass, Naked ([6]; Postemergence, 16 g ai/ha): 90
- Plant response rating, Crabgrass, Naked ([6]; Postemergence, 31 g ai/ha): 90
- Plant response rating, Crabgrass, Naked ([6]; Postemergence, 62 g ai/ha): 98
- Plant response rating, Groundsel ([7]; 8 g ai/ha): 0
- Plant response rating, Groundsel ([7]; 16 g ai/ha): 0
- Plant response rating, Groundsel ([7]; 31 g ai/ha): 0
- Plant response rating, Groundsel ([7]; 62 g ai/ha): 0
- Plant response rating, Johnsongrass ([8]; 16 g ai/ha, Preemergence): 75
- Plant response rating, Johnsongrass ([8]; 31 g ai/ha, Preemergence): 85
- Plant response rating, Johnsongrass ([8]; 62 g ai/ha, Preemergence): 98
- Plant response rating, Johnsongrass ([8]; Postemergence, 8 g ai/ha): 50
- Plant response rating, Johnsongrass ([8]; Postemergence, 16 g ai/ha): 75
- Plant response rating, Johnsongrass ([8]; Postemergence, 31 g ai/ha): 98
- Plant response rating, Johnsongrass ([8]; Postemergence, 62 g ai/ha): 98
- Plant response rating, Chickweed ([9]; 8 g ai/ha): 0
- Plant response rating, Chickweed ([9]; 16 g ai/ha): 0
- Plant response rating, Chickweed ([9]; 31 g ai/ha): 0
- Plant response rating, Dallisgrass ([10]; 8 g ai/ha, Preemergence): 25
- Plant response rating, Dallisgrass ([10]; 16 g ai/ha, Preemergence): 50
- Plant response rating, Dallisgrass ([10]; 31 g ai/ha, Preemergence): 80
- Plant response rating, Dallisgrass ([10]; 62 g ai/ha, Preemergence): 100
- Plant response rating, Dallisgrass ([10]; Postemergence, 8 g ai/ha): 35
- Plant response rating, Dallisgrass ([10]; Postemergence, 16 g ai/ha): 35
- Plant response rating, Dallisgrass ([10]; Postemergence, 31 g ai/ha): 65
- Plant response rating, Dallisgrass ([10]; Postemergence, 62 g ai/ha): 65
- Plant response rating, Itchgrass ([11]; 16 g ai/ha, Preemergence): 60
- Plant response rating, Itchgrass ([11]; 31 g ai/ha, Preemergence): 80
- Plant response rating, Itchgrass ([11]; 62 g ai/ha, Preemergence): 80
- Plant response rating, Itchgrass ([11]; Postemergence, 8 g ai/ha): 40
- Plant response rating, Itchgrass ([11]; Postemergence, 16 g ai/ha): 65
- Plant response rating, Itchgrass ([11]; Postemergence, 31 g ai/ha): 70
- Plant response rating, Itchgrass ([11]; Postemergence, 62 g ai/ha): 75
- Plant response rating, Goosegrass ([12]; 8 g ai/ha, Preemergence): 75
- Plant response rating, Goosegrass ([12]; 16 g ai/ha, Preemergence): 98
- Plant response rating, Goosegrass ([12]; 31 g ai/ha, Preemergence): 98
- Plant response rating, Goosegrass ([12]; 62 g ai/ha, Preemergence): 100
- Plant response rating, Goosegrass ([12]; Postemergence, 8 g ai/ha): 35
- Plant response rating, Goosegrass ([12]; Postemergence, 16 g ai/ha): 35
- Plant response rating, Goosegrass ([12]; Postemergence, 31 g ai/ha): 75
- Plant response rating, Goosegrass ([12]; Postemergence, 62 g ai/ha): 75
- Plant response rating, Nutsedge, Purple ([13]; 16 g ai/ha, Preemergence): 0
- Plant response rating, Nutsedge, Purple ([13]; 31 g ai/ha, Preemergence): 0
- Plant response rating, Nutsedge, Purple ([13]; 62 g ai/ha, Preemergence): 0
- Plant response rating, Nutsedge, Purple ([13]; Postemergence, 8 g ai/ha): 0
- Plant response rating, Nutsedge, Purple ([13]; Postemergence, 16 g ai/ha): 0
- Plant response rating, Nutsedge, Purple ([13]; Postemergence, 31 g ai/ha): 0
- Plant response rating, Nutsedge, Purple ([13]; Postemergence, 62 g ai/ha): 0
- Plant response rating, Guineagrass ([14]; 16 g ai/ha, Preemergence): 100
- Plant response rating, Guineagrass ([14]; 31 g ai/ha, Preemergence): 100
- Plant response rating, Guineagrass ([14]; 62 g ai/ha, Preemergence): 100
- Plant response rating, Guineagrass ([14]; Postemergence, 8 g ai/ha): 80
- Plant response rating, Guineagrass ([14]; Postemergence, 16 g ai/ha): 80
- Plant response rating, Guineagrass ([14]; Postemergence, 31 g ai/ha): 90
- Plant response rating, Guineagrass ([14]; Postemergence, 62 g ai/ha): 95
- Plant response rating, Signalgrass ([15]; 16 g ai/ha, Preemergence): 75
- Plant response rating, Signalgrass ([15]; 31 g ai/ha, Preemergence): 98
- Plant response rating, Signalgrass ([15]; 62 g ai/ha, Preemergence): 100
- Plant response rating, Signalgrass ([15]; Postemergence, 8 g ai/ha): 75
- Plant response rating, Signalgrass ([15]; Postemergence, 16 g ai/ha): 75
- Plant response rating, Signalgrass ([15]; Postemergence, 31 g ai/ha): 95
- Plant response rating, Signalgrass ([15]; Postemergence, 62 g ai/ha): 100
